Test results reported in patent US12343326B2, “Psychoactive medicines and their use for treating psychiatric and neurological conditions and disorders” (Transcend Therapeutics, Inc., priority 2021, dated 2025).

How the values were obtained:
Assay in all cases: β-arrestin based GPCR screen (PathHunter / GPCRmax), agonist mode
Type in all cases: cell-based
Set-up in all cases: host or cells: PathHunter cell lines
[1] = target: 168 GPCRs (Homo sapiens, UniProt P43220); conditions: GLP1R
Method: (§1) For agonist determination, cells were incubated with sample to induce response. […] Vehicle concentration was 1%.

[2] = target: 168 GPCRs (Homo sapiens, UniProt P51685); conditions: CCR8, Agonist
Method: as §1

[3] = target: T1, 168 GPCRs (Homo sapiens, UniProt P24530); conditions: EDNRB
T1 sequence (P24530 27-442): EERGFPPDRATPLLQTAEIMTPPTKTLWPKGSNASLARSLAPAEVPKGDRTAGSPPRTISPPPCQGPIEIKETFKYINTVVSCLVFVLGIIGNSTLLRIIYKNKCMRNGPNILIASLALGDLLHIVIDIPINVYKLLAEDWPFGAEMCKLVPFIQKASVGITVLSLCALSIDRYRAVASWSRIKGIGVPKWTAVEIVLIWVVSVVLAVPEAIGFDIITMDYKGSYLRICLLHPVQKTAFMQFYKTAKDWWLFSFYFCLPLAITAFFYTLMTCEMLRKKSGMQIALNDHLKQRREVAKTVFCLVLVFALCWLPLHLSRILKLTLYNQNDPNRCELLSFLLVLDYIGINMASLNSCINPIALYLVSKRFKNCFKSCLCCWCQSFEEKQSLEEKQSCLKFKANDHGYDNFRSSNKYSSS
Method: as §1

[4] = target: 168 GPCRs (Homo sapiens, UniProt P21730); conditions: C5AR1, Agonist
Method: as §1

[5] = target: 168 GPCRs (Homo sapiens, UniProt P51582)
Method: as §1

[6] = target: 168 GPCRs (Homo sapiens, UniProt O14842)
Method: as §1

[7] = target: 168 GPCRs (Homo sapiens, UniProt O00574)
Method: as §1

[8] = target: 168 GPCRs (Homo sapiens, UniProt P43116)
Method: as §1

[9] = target: 168 GPCRs (Homo sapiens, UniProt Q03431)
Method: as §1

[10] = target: 168 GPCRs (Homo sapiens, UniProt P32302)
Method: as §1

[11] = target: T2, 168 GPCRs (Homo sapiens, UniProt P32247); conditions: BRS3, Agonist
T2 sequence (P32247 1-399): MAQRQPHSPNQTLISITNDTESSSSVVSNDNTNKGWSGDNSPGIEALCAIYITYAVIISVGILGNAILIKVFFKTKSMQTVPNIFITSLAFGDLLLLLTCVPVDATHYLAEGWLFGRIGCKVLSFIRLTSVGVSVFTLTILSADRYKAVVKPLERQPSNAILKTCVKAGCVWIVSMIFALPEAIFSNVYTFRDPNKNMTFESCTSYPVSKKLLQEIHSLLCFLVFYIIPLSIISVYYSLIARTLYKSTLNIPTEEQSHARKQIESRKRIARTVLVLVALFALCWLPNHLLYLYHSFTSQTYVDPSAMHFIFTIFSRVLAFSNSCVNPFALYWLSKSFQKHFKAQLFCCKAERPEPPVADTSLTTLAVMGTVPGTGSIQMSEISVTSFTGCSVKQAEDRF
Method: as §1

[12] = target: 168 GPCRs (Homo sapiens, UniProt P48039); conditions: MTNR1A
Method: as §1

[13] = target: 168 GPCRs (Homo sapiens, UniProt Q9UKP6)
Method: as §1

[14] = target: 168 GPCRs (Homo sapiens, UniProt P41586); conditions: ADCYAP1R1, Agonist
Method: as §1

[15] = target: 168 GPCRs (Homo sapiens, UniProt P43088); conditions: PTGFR
Method: as §1

[16] = target: 168 GPCRs (Homo sapiens, UniProt O43613)
Method: as §1

[17] = target: 168 GPCRs (Homo sapiens, UniProt P35408)
Method: as §1

Sequence of 168 GPCRs (Homo sapiens, UniProt O43613) (O43613 whole entry): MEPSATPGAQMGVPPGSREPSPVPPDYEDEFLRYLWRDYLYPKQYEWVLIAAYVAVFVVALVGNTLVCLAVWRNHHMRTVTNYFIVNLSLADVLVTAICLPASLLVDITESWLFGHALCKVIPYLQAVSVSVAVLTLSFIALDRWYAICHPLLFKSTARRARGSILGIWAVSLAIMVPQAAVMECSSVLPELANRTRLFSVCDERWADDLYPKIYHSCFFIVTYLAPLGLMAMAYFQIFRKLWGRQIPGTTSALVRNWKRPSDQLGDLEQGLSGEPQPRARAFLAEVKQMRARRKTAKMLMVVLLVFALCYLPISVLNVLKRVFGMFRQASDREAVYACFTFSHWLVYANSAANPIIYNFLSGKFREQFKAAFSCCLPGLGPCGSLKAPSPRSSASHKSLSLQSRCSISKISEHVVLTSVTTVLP
Sequence of 168 GPCRs (Homo sapiens, UniProt P35408) (P35408 whole entry): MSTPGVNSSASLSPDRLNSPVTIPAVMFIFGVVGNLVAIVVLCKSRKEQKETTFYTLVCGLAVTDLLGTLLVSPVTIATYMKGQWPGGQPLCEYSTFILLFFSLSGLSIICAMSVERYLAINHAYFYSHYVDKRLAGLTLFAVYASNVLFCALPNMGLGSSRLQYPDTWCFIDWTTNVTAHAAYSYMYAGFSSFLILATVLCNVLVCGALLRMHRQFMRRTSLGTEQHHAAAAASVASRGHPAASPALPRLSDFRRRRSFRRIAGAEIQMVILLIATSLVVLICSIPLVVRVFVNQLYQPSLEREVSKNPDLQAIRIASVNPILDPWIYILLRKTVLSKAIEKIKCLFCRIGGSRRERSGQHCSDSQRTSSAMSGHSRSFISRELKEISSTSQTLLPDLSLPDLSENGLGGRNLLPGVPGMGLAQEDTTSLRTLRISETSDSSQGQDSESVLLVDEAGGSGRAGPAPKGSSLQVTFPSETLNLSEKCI
Sequence of 168 GPCRs (Homo sapiens, UniProt P43116) (P43116 whole entry): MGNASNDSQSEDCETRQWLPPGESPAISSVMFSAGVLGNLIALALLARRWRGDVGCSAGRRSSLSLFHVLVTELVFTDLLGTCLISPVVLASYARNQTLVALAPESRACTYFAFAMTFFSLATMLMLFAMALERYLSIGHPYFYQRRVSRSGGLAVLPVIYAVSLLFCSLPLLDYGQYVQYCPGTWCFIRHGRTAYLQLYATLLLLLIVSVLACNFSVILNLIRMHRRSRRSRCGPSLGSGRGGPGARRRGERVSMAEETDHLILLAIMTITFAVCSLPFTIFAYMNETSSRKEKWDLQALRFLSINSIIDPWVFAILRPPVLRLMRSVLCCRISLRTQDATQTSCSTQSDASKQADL
Sequence of 168 GPCRs (Homo sapiens, UniProt P48039) (P48039 whole entry): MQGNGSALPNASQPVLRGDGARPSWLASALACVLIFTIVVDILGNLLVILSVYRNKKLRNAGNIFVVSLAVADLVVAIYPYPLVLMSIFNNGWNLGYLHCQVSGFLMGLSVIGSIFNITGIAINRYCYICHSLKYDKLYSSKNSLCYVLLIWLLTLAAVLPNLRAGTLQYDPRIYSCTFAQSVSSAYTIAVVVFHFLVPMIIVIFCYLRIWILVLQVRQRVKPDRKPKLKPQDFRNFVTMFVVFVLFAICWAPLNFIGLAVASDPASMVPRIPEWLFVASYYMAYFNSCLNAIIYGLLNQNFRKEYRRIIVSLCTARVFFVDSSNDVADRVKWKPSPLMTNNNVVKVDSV
Sequence of 168 GPCRs (Homo sapiens, UniProt P32302) (P32302 whole entry): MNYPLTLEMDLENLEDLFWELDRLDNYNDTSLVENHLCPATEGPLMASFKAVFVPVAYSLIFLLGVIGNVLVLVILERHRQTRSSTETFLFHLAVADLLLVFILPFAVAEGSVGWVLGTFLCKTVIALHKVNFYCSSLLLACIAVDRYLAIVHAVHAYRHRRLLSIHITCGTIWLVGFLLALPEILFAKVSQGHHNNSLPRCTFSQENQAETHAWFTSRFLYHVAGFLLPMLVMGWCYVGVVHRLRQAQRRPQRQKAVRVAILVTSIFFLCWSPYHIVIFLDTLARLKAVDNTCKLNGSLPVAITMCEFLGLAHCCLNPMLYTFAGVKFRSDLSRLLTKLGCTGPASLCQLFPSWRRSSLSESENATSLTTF
Sequence of 168 GPCRs (Homo sapiens, UniProt P41586) (P41586 21-468): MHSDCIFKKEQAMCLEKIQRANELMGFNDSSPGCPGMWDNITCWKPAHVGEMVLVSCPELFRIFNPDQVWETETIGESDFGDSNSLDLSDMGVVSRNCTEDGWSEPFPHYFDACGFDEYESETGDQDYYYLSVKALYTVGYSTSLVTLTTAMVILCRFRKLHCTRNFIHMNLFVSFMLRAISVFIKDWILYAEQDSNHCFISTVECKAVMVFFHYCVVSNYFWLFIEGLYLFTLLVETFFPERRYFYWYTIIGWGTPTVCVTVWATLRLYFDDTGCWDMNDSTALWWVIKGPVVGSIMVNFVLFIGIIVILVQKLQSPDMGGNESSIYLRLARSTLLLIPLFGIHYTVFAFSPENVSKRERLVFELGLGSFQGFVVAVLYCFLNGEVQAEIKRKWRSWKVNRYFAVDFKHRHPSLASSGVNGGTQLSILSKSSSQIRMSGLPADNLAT
Sequence of 168 GPCRs (Homo sapiens, UniProt Q9UKP6) (Q9UKP6 whole entry): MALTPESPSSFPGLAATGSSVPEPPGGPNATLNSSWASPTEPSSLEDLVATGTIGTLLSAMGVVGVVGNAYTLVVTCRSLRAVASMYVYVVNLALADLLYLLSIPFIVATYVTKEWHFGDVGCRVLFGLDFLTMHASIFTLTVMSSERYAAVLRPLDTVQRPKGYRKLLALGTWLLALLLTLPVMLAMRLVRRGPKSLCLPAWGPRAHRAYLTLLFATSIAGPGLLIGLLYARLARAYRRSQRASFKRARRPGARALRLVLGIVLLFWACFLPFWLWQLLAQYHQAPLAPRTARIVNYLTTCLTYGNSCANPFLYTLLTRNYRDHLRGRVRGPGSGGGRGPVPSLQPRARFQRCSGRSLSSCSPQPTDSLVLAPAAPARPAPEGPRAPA
Sequence of 168 GPCRs (Homo sapiens, UniProt P51582) (P51582 whole entry): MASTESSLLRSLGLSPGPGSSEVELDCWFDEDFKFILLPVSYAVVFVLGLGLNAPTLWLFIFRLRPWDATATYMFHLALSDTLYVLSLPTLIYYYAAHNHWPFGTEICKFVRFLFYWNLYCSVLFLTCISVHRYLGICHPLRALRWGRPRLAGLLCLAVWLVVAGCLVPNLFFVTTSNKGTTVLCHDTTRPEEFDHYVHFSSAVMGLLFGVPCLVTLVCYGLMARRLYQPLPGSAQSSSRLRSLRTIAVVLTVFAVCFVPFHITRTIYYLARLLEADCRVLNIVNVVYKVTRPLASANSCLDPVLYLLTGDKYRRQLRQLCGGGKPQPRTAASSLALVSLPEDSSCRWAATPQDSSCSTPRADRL
Sequence of 168 GPCRs (Homo sapiens, UniProt P43220) (P43220 24-463): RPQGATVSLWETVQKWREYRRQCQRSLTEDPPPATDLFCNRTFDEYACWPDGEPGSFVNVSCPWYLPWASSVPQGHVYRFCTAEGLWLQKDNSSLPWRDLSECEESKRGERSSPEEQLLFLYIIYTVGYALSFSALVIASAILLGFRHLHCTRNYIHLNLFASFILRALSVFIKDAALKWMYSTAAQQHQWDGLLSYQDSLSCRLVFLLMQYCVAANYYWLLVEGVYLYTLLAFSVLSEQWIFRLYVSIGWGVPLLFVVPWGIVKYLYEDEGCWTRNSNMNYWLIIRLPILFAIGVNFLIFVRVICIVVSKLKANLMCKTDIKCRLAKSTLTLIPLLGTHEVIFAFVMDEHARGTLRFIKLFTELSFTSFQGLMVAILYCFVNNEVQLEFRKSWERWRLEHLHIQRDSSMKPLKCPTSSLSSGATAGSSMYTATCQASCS
Sequence of 168 GPCRs (Homo sapiens, UniProt P43088) (P43088 whole entry): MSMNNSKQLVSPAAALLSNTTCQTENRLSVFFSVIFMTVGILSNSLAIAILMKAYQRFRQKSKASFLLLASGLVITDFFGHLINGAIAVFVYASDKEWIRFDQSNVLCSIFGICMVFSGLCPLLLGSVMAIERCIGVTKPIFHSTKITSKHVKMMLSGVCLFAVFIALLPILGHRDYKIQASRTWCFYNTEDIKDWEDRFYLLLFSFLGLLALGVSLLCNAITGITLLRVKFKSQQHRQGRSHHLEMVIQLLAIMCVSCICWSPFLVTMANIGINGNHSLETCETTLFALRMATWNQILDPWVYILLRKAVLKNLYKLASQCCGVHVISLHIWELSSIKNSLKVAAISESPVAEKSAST
Sequence of 168 GPCRs (Homo sapiens, UniProt P21730) (P21730 whole entry): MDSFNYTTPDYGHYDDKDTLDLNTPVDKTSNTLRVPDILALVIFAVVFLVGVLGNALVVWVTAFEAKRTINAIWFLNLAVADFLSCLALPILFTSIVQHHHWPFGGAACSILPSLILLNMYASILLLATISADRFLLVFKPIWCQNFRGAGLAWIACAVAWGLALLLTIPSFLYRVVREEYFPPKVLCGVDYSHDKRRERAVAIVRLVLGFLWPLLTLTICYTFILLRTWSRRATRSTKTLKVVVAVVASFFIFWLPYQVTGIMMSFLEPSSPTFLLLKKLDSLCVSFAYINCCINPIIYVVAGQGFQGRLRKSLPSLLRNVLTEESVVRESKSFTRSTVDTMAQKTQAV
Sequence of 168 GPCRs (Homo sapiens, UniProt P51685) (P51685 whole entry): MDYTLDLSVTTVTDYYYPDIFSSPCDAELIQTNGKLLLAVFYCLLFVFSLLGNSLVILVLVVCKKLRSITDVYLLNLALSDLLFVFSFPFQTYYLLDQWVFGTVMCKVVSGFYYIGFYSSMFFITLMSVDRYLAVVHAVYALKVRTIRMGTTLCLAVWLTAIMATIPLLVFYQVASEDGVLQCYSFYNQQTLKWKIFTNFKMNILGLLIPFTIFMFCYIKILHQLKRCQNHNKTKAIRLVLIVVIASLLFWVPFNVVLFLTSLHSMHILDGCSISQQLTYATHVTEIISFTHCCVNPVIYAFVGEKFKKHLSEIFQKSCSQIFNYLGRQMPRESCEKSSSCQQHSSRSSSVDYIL

CNC(C)C(=O)c1ccc2c(c1)OCO2 (stereo not shown) [methylone, 3,4-methylenedioxy-N-methylcathinone]
activity at 10 µM ([1]; Agonist mode, 10 uM): -0.1% | activity at 1 µM ([1]; Agonist, 1 uM): -0.3% | activity at 1 µM ([2]; 1 uM): -0.2% | activity at 10 µM ([2]; 10 uM): -0.6% | activity at 10 µM ([3]; Agonist mode, 10 uM): -0.1% | activity at 1 µM ([3]; Agonist, 1 uM): 0.7% | activity at 1 µM ([4]; 1 uM): -1% | activity at 10 µM ([4]; 10 uM): -1.3% | activity at 10 µM ([5]; P2RY4, Agonist mode, 10 uM): 4.1% | activity at 1 µM ([5]; P2RY4, Agonist, 1 uM): -3.3% | activity at 10 µM ([6]; FFAR1, Agonist mode, 10 uM): 4.5% | activity at 1 µM ([6]; FFAR1, Agonist, 1 uM): 1.7% | activity at 10 µM ([7]; CXCR6, Agonist mode, 10 uM): 0.3% | activity at 1 µM ([7]; CXCR6, Agonist, 1 uM): 0.3% | activity at 10 µM ([8]; PTGER2, Agonist mode, 10 uM): -3.1% | activity at 1 µM ([8]; PTGER2, Agonist, 1 uM): -1.4% | activity at 10 µM ([9]; PTHR1, Agonist mode, 10 uM): 0.1% | activity at 1 µM ([9]; PTHR1, Agonist, 1 uM): 0% | activity at 10 µM ([10]; CXCR5, Agonist mode, 10 uM): 1.4% | activity at 1 µM ([10]; CXCR5, Agonist, 1 uM): 2.5% | activity at 1 µM ([11]; 1 uM): 4.5% | activity at 10 µM ([11]; 10 uM): -4.6% | activity at 10 µM ([12]; Agonist mode, 10 uM): -11.7% | activity at 1 µM ([12]; Agonist, 1 uM): -12.3% | activity at 10 µM ([13]; UTR2, Agonist mode, 10 uM): 0% | activity at 1 µM ([13]; UTR2, Agonist, 1 uM): 0.6% | activity at 1 µM ([14]; 1 uM): -4% | activity at 10 µM ([14]; 10 uM): -3% | activity at 10 µM ([15]; Agonist mode, 10 uM): -0.2% | activity at 1 µM ([15]; Agonist, 1 uM): 0.3% | activity at 10 µM ([16]; HCRTR1, Agonist mode, 10 uM): -0.1% | activity at 1 µM ([16]; HCRTR1, Agonist, 1 uM): -0.1% | activity at 10 µM ([17]; PTGER4, Agonist mode, 10 uM): -1.4% | activity at 1 µM ([17]; PTGER4, Agonist, 1 uM): -2.8%
